# According to ChEMBL document CHEMBL5120880, “Peptidomimetics: An Overview of Recent Medicinal Chemistry Efforts toward the Discovery of Novel Small Molecule Inhibitors” (J Med Chem, 2022):
# Peptide text beside a SMILES is read from it.
# What was measured:
# [1] = tested on: Feline infectious peritonitis virus; assay: microbe, parasite or virus in culture; conditions: Alphacoronavirus 1
# Murine hepatitis virus = assay: microbe, parasite or virus in culture; conditions: Murine coronavirus
# SARS-CoV-2 = assay: microbe, parasite or virus in culture; conditions: Severe acute respiratory syndrome coronavirus 2
# [2] = tested on: Middle East respiratory syndrome-related coronavirus; assay: microbe, parasite or virus in culture
# SARS-CoV = assay: microbe, parasite or virus in culture; conditions: Severe acute respiratory syndrome-related coronavirus
# [3] = tested on: Middle East respiratory syndrome-related coronavirus; assay: Antiviral activity against MERS-CoV by cell based assay; format: functional, organism-based
# Bacillus subtilis = assay: Antibacterial activity against Bacillus subtilis DSM10 assessed as minimal inhibitory concentration by microdilution assay; format: functional
# Mycolicibacterium phlei = assay: Antibacterial activity against Mycobacterium phlei DSM750 assessed as minimal inhibitory concentration by microdilution assay; format: functional
# Escherichia coli [4] = assay: Antibacterial activity against Escherichia coli BW25113 assessed as minimal inhibitory concentration by microdilution assay; format: functional
# Salmonella typhimurium = assay: Antibacterial activity against Salmonella typhimurium TA100 assessed as minimal inhibitory concentration by microdilution assay; format: functional, Salmonella enterica subsp. enterica serovar Typhimurium; conditions: Salmonella enterica
# Staphylococcus aureus [5] = assay: Antimicrobial activity against Staphylococcus aureus KCTC 1621 assessed as minimal inhibitory concentration incubated for 18 hrs; format: functional
# Pseudomonas aeruginosa = assay: Antimicrobial activity against Pseudomonas aeruginosa KCTC 1637 assessed as minimal inhibitory concentration incubated for 18 hrs; format: functional
# Escherichia coli [6] = assay: Antimicrobial activity against Escherichia coli KCTC 1682 assessed as minimal inhibitory concentration incubated for 18 hrs; format: functional
# [7] = tested on: Staphylococcus epidermidis; assay: Antimicrobial activity against Staphylococcus epidermidis KCTC 1917 assessed as minimal inhibitory concentration incubated for 18 hrs; format: functional
# [8] = biological target: T1, Enoyl-[acyl-carrier-protein] reductase [NADH] FabI (Escherichia coli K-12, UniProt P0AEK4); assay: Inhibition of Escherichia coli […] assessed as measuring NADH consumption rate
# T1 sequence (P0AEK4 whole entry): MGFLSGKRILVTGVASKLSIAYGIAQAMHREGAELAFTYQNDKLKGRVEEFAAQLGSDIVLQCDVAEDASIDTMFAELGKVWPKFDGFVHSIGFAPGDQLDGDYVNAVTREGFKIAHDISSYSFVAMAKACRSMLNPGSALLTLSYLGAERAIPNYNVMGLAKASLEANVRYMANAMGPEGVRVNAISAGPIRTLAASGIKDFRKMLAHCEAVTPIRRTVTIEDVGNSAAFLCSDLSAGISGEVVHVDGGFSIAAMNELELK
# Staphylococcus aureus [9] = assay: Antibacterial activity against Staphylococcus aureus ATCC 29213 assessed as minimal inhibitory concentration; format: functional
# Escherichia coli [10] = assay: Antibacterial activity against Escherichia coli AG100 assessed as minimal inhibitory concentration; format: functional
# [11] = tested on: Klebsiella pneumoniae subsp. ozaenae; assay: Antibacterial activity against Klebsiella pneumoniae A6030827 assessed as minimal inhibitory concentration; format: functional
# [12] = Inhibition of Acinetobacter baumannii […] assessed as measuring NADH consumption rate
# Acinetobacter baumannii = assay: Antibacterial activity against Acinetobacter baumannii ATCC BAA1605 assessed as minimal inhibitory concentration; format: functional
# Hepatitis C virus = assay: Antiviral activity against HCV genotype 1b/3a NS5A infected in human Huh-7 cells by phenotypic assay; format: functional, organism-based, Hepacivirus hominis
smiles,measurement,setting,value
CCCC1CCC(OC(=O)N[C@@H](CC(C)C)C(=O)N[C@@H](C[C@H]2CCNC2=O)C(O)S(=O)(=O)O)CC1 (stereo partly specified),EC50,[1],170 nM
same,EC50,Murine hepatitis virus,160 nM
same,IC50,SARS-CoV-2,1600 nM
same,IC50,[2],100 nM
CC(C)C[C@H](NC(=O)OCC1CCC(F)(F)CC1)C(=O)N[C@@H](C[C@H]1CCNC1=O)C(O)S(=O)(=O)O (stereo partly specified),EC50,[1],70 nM
same,EC50,Murine hepatitis virus,160 nM
same,IC50,SARS-CoV,1100 nM
same,IC50,SARS-CoV-2,1100 nM
same,IC50,[2],100 nM
CC(C)C[C@H](NC(=O)OCC1CCC(F)(F)CC1)C(=O)N[C@H](C=O)C[C@H]1CCNC1=O,EC50,[1],80 nM
same,EC50,[3],30 nM
same,IC50,SARS-CoV-2,900 nM
COc1c(/C=C(\F)c2ccc(NC(=O)[C@H](CC#N)NC(=O)c3ccc(NC(=O)/C(C)=C/c4ccc(O)cc4)cc3)cc2)ccc(C(=O)Nc2ccc(C(=O)O)c(O)c2OC)c1O,MIC,Bacillus subtilis,0.031 µg/mL
same,MIC,Mycolicibacterium phlei,0.25 µg/mL
same,MIC,Escherichia coli [4],< 0.063 µg/mL
same,MIC,Salmonella typhimurium,0.031 µg/mL
CC(=O)NCCNc1nc(NCC(=O)NCCNc2nc(NCC(=O)NCCNc3nc(NCC(N)=O)nc(N(Cc4ccccc4)Cc4ccccc4)n3)nc(N(CCCN)CCCN)n2)nc(N(Cc2ccccc2)Cc2ccccc2)n1,MIC,Staphylococcus aureus [5],64 µg/mL
same,MIC,Pseudomonas aeruginosa,32 µg/mL
same,MIC,Escherichia coli [6],128 µg/mL
same,MIC,[7],64 µg/mL
COc1c(/C=C/c2ccc(NC(=O)[C@H](CC#N)NC(=O)c3ccc(NC(=O)/C(C)=C/c4ccc(O)cc4)cc3)cc2)ccc(C(=O)Nc2ccc(C(=O)O)c(O)c2OC)c1O,MIC,Bacillus subtilis,0.063 µg/mL
same,MIC,Mycolicibacterium phlei,0.5 µg/mL
same,MIC,Escherichia coli [4],0.125 µg/mL
same,MIC,Salmonella typhimurium,0.063 µg/mL
CC(C)C[C@H](NC(=O)OC1CCC(F)(F)CC1)C(=O)N[C@@H](C[C@H]1CCNC1=O)C(O)S(=O)(=O)O (stereo partly specified),EC50,[1],120 nM
same,EC50,Murine hepatitis virus,110 nM
same,IC50,SARS-CoV,2200 nM
same,EC50,[3],210 nM
same,IC50,SARS-CoV-2,1600 nM
same,IC50,[2],80 nM
COc1c(NC(=O)c2ccc(-c3cc4ccc(-c5ccc(NC(=O)[C@H](CC#N)NC(=O)c6ccc(NC(=O)/C(C)=C/c7ccc(O)cc7)cc6)cc5)cc4o3)c(OC)c2O)ccc(C(=O)O)c1O,MIC,Bacillus subtilis,0.25 µg/mL
same,MIC,Mycolicibacterium phlei,1 µg/mL
same,MIC,Escherichia coli [4],1 µg/mL
same,MIC,Salmonella typhimurium,0.125 µg/mL
CC(=O)NCCNc1nc(NCC(=O)NCCNc2nc(NCC(=O)NCCNc3nc(NCC(=O)NCCNc4nc(NCC(N)=O)nc(N(Cc5ccccc5)Cc5ccccc5)n4)nc(N(CCCN)CCCN)n3)nc(N(Cc3ccccc3)Cc3ccccc3)n2)nc(N(CCCN)CCCN)n1,MIC,Staphylococcus aureus [5],16 µg/mL
same,MIC,Pseudomonas aeruginosa,16 µg/mL
same,MIC,Escherichia coli [6],16 µg/mL
same,MIC,[7],16 µg/mL
CCCCC1CCC(OC(=O)N[C@@H](CC(C)C)C(=O)N[C@@H](C[C@H]2CCNC2=O)C(O)S(=O)(=O)O)CC1 (stereo partly specified),EC50,[1],170 nM
same,EC50,Murine hepatitis virus,130 nM
same,IC50,SARS-CoV,1000 nM
same,EC50,[3],530 nM
same,IC50,SARS-CoV-2,1100 nM
same,IC50,[2],130 nM
COc1c(NC(=O)c2ccc(-c3ccc4[nH]c(-c5ccc(NC(=O)[C@H](CC#N)NC(=O)c6ccc(NC(=O)/C(C)=C/c7ccc(O)cc7)cc6)cc5)nc4c3)c(OC)c2O)ccc(C(=O)O)c1O,MIC,Bacillus subtilis,2 µg/mL
same,MIC,Mycolicibacterium phlei,8 µg/mL
same,MIC,Escherichia coli [4],0.25 µg/mL
same,MIC,Salmonella typhimurium,0.063 µg/mL
Cc1c(CN(C)C(=O)/C=C/c2cnc3c(c2)CC[C@@H](N)C(=O)N3)oc2ccccc12.Cl,IC50,[8],< 10 nM
same,MIC,Staphylococcus aureus [9],≤ 4 µg/mL
same,MIC,Escherichia coli [10],≤ 4 µg/mL
same,MIC,[11],≤ 4 µg/mL
same,IC50,[12],< 10 nM
same,MIC,Acinetobacter baumannii,≤ 4 µg/mL
CC(C)C[C@H](NC(=O)OC1CCCCC1)C(=O)N[C@@H](C[C@H]1CCNC1=O)C(O)S(=O)(=O)O (stereo partly specified),EC50,[1],70 nM
same,EC50,Murine hepatitis virus,80 nM
same,IC50,SARS-CoV,3800 nM
same,EC50,[3],80 nM
same,IC50,SARS-CoV-2,3500 nM
same,IC50,[2],150 nM
Cc1c(CN(C)C(=O)/C=C/c2cnc3c(c2)NC[C@@H](N)C(=O)N3)oc2ccccc12.Cl,IC50,[8],< 10 nM
same,MIC,Staphylococcus aureus [9],< 4 µg/mL
same,MIC,Escherichia coli [10],< 4 µg/mL
same,MIC,[11],< 4 µg/mL
same,IC50,[12],< 10 nM
same,MIC,Acinetobacter baumannii,< 4 µg/mL
Cc1oc2c(N)cccc2c1CN(C)C(=O)/C=C/c1cnc2c(c1)N[C@H](C)[C@H](N)C(=O)N2,MIC,Staphylococcus aureus [9],≤ 4 µg/mL
same,MIC,Escherichia coli [10],≤ 4 µg/mL
same,IC50,[12],< 10 nM
same,MIC,Acinetobacter baumannii,≤ 4 µg/mL
COc1c(CCc2ccc(NC(=O)[C@H](CC#N)NC(=O)c3ccc(NC(=O)/C(C)=C/c4ccc(O)cc4)cc3)cc2)ccc(C(=O)Nc2ccc(C(=O)O)c(O)c2OC)c1O,MIC,Bacillus subtilis,0.063 µg/mL
same,MIC,Mycolicibacterium phlei,1 µg/mL
same,MIC,Escherichia coli [4],0.25 µg/mL
same,MIC,Salmonella typhimurium,0.25 µg/mL
CC(C)C[C@H](NC(=O)OC1CCCCC1)C(=O)N[C@H](C=O)C[C@H]1CCNC1=O,EC50,[1],90 nM
same,EC50,Murine hepatitis virus,120 nM
same,IC50,SARS-CoV,3900 nM
same,IC50,SARS-CoV-2,3700 nM
same,IC50,[2],350 nM
COc1c(C#Cc2ccc(NC(=O)[C@H](CC#N)NC(=O)c3ccc(NC(=O)/C(C)=C/c4ccc(O)cc4)cc3)cc2)ccc(C(=O)Nc2ccc(C(=O)O)c(O)c2OC)c1O,MIC,Bacillus subtilis,0.063 µg/mL
same,MIC,Mycolicibacterium phlei,0.5 µg/mL
same,MIC,Escherichia coli [4],< 0.063 µg/mL
same,MIC,Salmonella typhimurium,≤ 0.016 µg/mL
Cc1oc2c(N)cccc2c1CN(C)C(=O)/C=C/c1cnc2c(c1)CCC(N1CCCC1)C(=O)N2 (stereo unspecified),IC50,[8],< 10 nM
same,MIC,Staphylococcus aureus [9],≤ 4 µg/mL
same,MIC,Escherichia coli [10],8 µg/mL
same,MIC,Acinetobacter baumannii,≤ 4 µg/mL
COC(=O)N[C@H](C(=O)N1CCC[C@@H]1c1ncc(-c2cccc(-c3c4c(c(-c5cccc(-c6cnc([C@@H]7CCCN7C(=O)[C@H](NC(=O)OC)c7ccccc7)[nH]6)c5)c5c3C(C)(C)CC5)C(C)(C)CC4)c2)[nH]1)c1ccccc1,EC50,Hepatitis C virus,0.053 nM
Cc1c(CN(C)C(=O)/C=C/c2cnc3c(c2)NC[C@@H](N2C[C@@H](C)O[C@@H](C)C2)C(=O)N3)oc2ccccc12,IC50,[8],< 10 nM
same,MIC,Staphylococcus aureus [9],≤ 4 µg/mL
same,MIC,[11],16 µg/mL
same,MIC,Acinetobacter baumannii,≤ 4 µg/mL
Cc1c(CN(C)C(=O)/C=C/c2cnc3c(c2)N[C@H](C)[C@H](N)C(=O)N3)oc2ccccc12,MIC,Staphylococcus aureus [9],≤ 4 µg/mL
same,MIC,Escherichia coli [10],≤ 4 µg/mL
same,IC50,[12],< 10 nM
same,MIC,Acinetobacter baumannii,≤ 4 µg/mL
COc1c(NC(=O)c2ccc(NC(=O)c3ccc(NC(=O)[C@H](Cc4nn[nH]n4)NC(=O)c4ccc(NC(=O)/C(C)=C/c5ccc(O)cc5)cc4)cc3)c(OC)c2O)ccc(C(=O)O)c1O,MIC,Bacillus subtilis,0.25 µg/mL
same,MIC,Mycolicibacterium phlei,2 µg/mL
same,MIC,Escherichia coli [4],0.063 µg/mL
same,MIC,Salmonella typhimurium,0.063 µg/mL
CC(=O)N[C@@H](CCCCN)C(=O)N[C@@H](Cc1c[nH]c2ccccc12)C(=O)N[C@@H](CCCCN)C(=O)N[C@@H](Cc1c[nH]c2ccccc12)C(N)=O (Ac-KWKW-NH2),MIC,Staphylococcus aureus [5],> 128 µg/mL
same,MIC,Pseudomonas aeruginosa,> 128 µg/mL
same,MIC,Escherichia coli [6],> 128 µg/mL
same,MIC,[7],> 128 µg/mL
CC(=O)N[C@@H](CCCCN)C(=O)N[C@@H](Cc1c[nH]c2ccccc12)C(=O)N[C@@H](CCCCN)C(N)=O (Ac-Lys-Trp-Lys-NH2),MIC,Staphylococcus aureus [5],> 128 µg/mL
same,MIC,Pseudomonas aeruginosa,128 µg/mL
same,MIC,Escherichia coli [6],64 µg/mL
same,MIC,[7],> 128 µg/mL
CC(=O)N[C@@H](CCCCN)C(=O)N[C@@H](Cc1c[nH]c2ccccc12)C(N)=O (Ac-Lys-Trp-NH2),MIC,Staphylococcus aureus [5],> 128 µg/mL
same,MIC,Pseudomonas aeruginosa,128 µg/mL
same,MIC,Escherichia coli [6],128 µg/mL
same,MIC,[7],> 128 µg/mL
CC(=O)N[C@@H](Cc1c[nH]c2ccccc12)C(=O)N[C@@H](CCCCN)C(=O)N[C@@H](Cc1c[nH]c2ccccc12)C(N)=O (Ac-Trp-Lys-Trp-NH2),MIC,Staphylococcus aureus [5],> 128 µg/mL
same,MIC,Pseudomonas aeruginosa,> 128 µg/mL
same,MIC,Escherichia coli [6],> 128 µg/mL
same,MIC,[7],> 128 µg/mL
